Legend:
[1] = biological target: EGFR (Homo sapiens, UniProt P00533); test: EGFR signaling (pEGFR Tyr1068/total EGFR MSD) in A431 cells; type: cell-based; design: endogenous in cells; host or cells: A431, N87; conditions: for EC50: A431 cells, read-out: A431 pEGFR EC50; for Selectivity A431 EC50/BT474 EC50: ratio A431 pEGFR EC50 to BT474 pHER2 EC50; for Selectivity A431 EC50/HEKYVMA EC50: ratio A431 pEGFR EC50 to HEK YVMA pHER2 EC50
Outline: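 EC50 was fitted with variable Hill slope from MSD pTyr1068/total EGFR ratios, expressed as % DMSO control. A431 cells were starved overnight, then exposed 1.5 h to eight concentrations from 10 to 0.005 μM in 1% FBS before a 10-min 100 ng/mL EGF pulse.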

[2] = biological target: HER2YVMA (Homo sapiens, UniProt P04626, INS775YVMA); test: Enzymatic assay HER2YVMA (method b); type: biochemical; design: purchased Viva biotech, Shanghai, China custom purification; conditions: [HER2YVMA]=5 nM, [ATP]=25 μM, [Peptide 22]=1 μM
Sequence of HER2YVMA (P04626 with tags, fused parts or gaps INS775YVMA): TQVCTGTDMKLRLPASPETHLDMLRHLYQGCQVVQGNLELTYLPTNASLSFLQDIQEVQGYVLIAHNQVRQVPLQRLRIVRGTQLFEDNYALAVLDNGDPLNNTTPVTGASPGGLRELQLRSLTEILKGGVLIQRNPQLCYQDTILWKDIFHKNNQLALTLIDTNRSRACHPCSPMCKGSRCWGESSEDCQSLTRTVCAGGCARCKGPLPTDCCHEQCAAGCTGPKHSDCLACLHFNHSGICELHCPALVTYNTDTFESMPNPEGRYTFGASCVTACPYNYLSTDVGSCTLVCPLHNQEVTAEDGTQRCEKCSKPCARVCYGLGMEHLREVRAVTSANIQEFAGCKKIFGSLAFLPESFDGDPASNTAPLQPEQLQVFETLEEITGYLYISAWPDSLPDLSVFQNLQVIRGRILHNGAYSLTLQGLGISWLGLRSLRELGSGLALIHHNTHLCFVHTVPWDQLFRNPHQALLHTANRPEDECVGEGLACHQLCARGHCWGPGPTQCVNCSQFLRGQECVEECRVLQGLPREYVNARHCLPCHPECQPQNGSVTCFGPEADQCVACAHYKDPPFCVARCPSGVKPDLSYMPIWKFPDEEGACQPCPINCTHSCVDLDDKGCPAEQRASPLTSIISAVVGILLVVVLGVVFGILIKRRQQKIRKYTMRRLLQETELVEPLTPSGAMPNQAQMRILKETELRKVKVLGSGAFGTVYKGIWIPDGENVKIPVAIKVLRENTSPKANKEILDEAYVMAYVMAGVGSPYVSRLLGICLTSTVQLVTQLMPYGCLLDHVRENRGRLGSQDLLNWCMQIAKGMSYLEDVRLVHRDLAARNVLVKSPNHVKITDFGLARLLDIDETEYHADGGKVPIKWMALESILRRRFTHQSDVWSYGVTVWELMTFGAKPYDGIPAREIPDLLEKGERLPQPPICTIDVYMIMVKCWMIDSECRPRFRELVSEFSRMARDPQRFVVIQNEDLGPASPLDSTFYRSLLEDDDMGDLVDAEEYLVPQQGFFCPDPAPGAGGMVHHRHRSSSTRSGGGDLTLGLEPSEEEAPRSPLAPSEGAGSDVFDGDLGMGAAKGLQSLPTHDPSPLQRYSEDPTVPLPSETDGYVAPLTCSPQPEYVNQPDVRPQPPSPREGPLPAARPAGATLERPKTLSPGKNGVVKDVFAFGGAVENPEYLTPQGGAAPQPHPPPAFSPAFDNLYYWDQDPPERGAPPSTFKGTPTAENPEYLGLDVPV
Outline: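 Initial rates over 0–3600 s, read as substrate-to-product conversion by capillary electrophoresis, were converted to percent inhibition and fitted with a variable-slope curve to give IC50. Conditions: EGFR WT 2 nM with 1 mM ATP; HER2 YVMA 5 nM or HER2 WT 12.5 nM, each with 25 μM ATP. All used 1 μM Peptide 22 in pH 7.5 HEPES/Mn/Mg buffer.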

Sequence of EGFR (P00533 25-1210): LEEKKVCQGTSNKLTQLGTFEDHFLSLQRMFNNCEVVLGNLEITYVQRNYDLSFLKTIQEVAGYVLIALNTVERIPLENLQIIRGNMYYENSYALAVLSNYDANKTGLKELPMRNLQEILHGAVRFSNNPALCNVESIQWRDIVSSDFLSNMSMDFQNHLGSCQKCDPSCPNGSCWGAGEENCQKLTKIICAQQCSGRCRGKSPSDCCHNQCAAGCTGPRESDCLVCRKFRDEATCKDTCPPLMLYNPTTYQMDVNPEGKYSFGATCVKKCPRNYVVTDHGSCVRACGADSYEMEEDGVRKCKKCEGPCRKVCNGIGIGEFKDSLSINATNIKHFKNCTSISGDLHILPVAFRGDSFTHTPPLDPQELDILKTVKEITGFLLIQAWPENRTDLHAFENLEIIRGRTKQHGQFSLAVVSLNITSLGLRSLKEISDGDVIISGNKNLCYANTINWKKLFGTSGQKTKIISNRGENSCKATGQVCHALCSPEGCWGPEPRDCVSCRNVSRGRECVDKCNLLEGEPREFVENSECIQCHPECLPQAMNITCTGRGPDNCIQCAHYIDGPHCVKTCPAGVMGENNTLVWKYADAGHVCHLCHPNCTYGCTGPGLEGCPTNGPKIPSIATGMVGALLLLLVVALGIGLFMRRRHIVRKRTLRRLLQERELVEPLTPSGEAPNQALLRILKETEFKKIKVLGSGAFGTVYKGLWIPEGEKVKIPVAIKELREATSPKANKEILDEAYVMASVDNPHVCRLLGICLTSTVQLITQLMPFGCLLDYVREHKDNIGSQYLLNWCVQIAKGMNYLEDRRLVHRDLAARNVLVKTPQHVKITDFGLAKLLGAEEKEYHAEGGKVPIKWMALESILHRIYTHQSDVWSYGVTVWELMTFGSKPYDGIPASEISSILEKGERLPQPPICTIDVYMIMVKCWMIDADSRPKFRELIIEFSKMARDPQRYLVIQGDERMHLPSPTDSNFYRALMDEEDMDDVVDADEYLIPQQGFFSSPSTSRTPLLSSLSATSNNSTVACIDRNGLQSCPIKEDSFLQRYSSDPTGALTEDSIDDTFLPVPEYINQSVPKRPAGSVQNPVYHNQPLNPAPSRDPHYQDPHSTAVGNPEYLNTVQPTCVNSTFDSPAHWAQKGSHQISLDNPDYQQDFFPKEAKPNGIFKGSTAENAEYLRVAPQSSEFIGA

| EC50 [1] | Selectivity A431 EC50/BT474 EC50 [1] | Selectivity A431 EC50/HEKYVMA EC50 [1] | IC50 [2] | SMILES |
| --- | --- | --- | --- | --- |
| 100 to 1000 nM | C (C: ≥ 10 and < 20) | D (D: ≥ 5 and < 10) | < 100 nM | Cc1ccc(Oc2ccc(Nc3ncnc4sc5c(c34)CCN(C(=O)/C=C/CN3CCCC34CCC4)C5)cc2C)cn1 [Compound 115] |
| 100 to 1000 nM | B (B: ≥ 20 and < 100) | E (E: >1 and < 5) | 100 to 1000 nM | Cc1ccc(Oc2ccc(Nc3ncnc4sc5c(c34)CCN(C(=O)/C=C/CN(C)C)CC5)cc2Cl)cn1 [Compound 167, (E)-1-(4-((3-Chloro-4-((6-methylpyridin-3-yl)oxy)phenyl)amino)-8,9-dihydro-5H-pyrimido[5′,4′:4,5]thieno[2,3-d]azepin-7(6H)-yl)-4-(dimethylamino)but-2-en-1-one] |
| 100 to 1000 nM | B (B: ≥ 20 and < 100) | B (B: ≥ 20 and < 100) | < 100 nM | Cc1ccc(Oc2ccc(Nc3ncnc4sc5c(c34)C(C)N(C(=O)/C=C/CN(C)C)C5)cc2C)cn1 (stereo not shown) [Compound 141, (E)-4-(dimethylamino)-1-(5-methyl-4-((3-methyl-4-((6-methylpyridin-3-yl)oxy)phenyl)amino)-5,7-dihydro-6H-pyrrolo[3′,4′:4,5]thieno[2,3-d]pyrimidin-6-yl)but-2-en-1-one] |
| < 100 nM | C (C: ≥ 10 and < 20) | A (A: ≥100) | < 100 nM | Cc1cc(Nc2ncnc3sc4c(c23)CCN(C(=O)/C=C/CN(C)C)C4)ccc1Oc1ccc2scnc2c1 [Compound 107, (E)-1-(4-((4-(benzo[d]thiazol-5-yloxy)-3-methylphenyl)amino)-5,8-dihydropyrido[4′,3′:4,5]thieno[2,3-d]pyrimidin-7(6H)-yl)-4-(dimethylamino)but-2-en-1-one] |
| 100 to 1000 nM | B (B: ≥ 20 and < 100) | B (B: ≥ 20 and < 100) | < 100 nM | Cc1ccc(Oc2ccc(Nc3ncnc4sc5c(c34)CN(C(=O)/C=C/CN(C)C)C5)cc2Cl)cn1 [Compound 129, (E)-1-(4-((3-Chloro-4-((6-methylpyridin-3-yl)oxy)phenyl)amino)-5H-pyrrolo[3′,4′:4,5]thieno[2,3-d]pyrimidin-6(7H)-yl)-4-(dimethylamino)but-2-en-1-one] |
| 100 to 1000 nM | C (C: ≥ 10 and < 20) | D (D: ≥ 5 and < 10) | < 100 nM | Cc1ccc(Oc2ccc(Nc3ncnc4sc5c(c34)CN(C(=O)C=CCN(C)C)C5C)cc2C)cn1 (single isomer, unassigned) [Compound 169] |
| < 100 nM | D (D: ≥ 5 and < 10) | E (E: >1 and < 5) | < 100 nM | COc1ccc(Oc2ccc(Nc3ncnc4sc5c(c34)CCN(C(=O)/C=C/CN(C)C(C)(C)C)C5)cc2C)cn1 [Compound 163] |
| 100 to 1000 nM | B (B: ≥ 20 and < 100) | D (D: ≥ 5 and < 10) | 100 to 1000 nM | Cc1ccc(Oc2ccc(Nc3ncnc4sc5c(c34)CCN(C(=O)/C=C/CN3CCO[C@@H](CO)C3)C5)cc2C)cn1 [Compound 144] |
| < 100 nM | C (C: ≥ 10 and < 20) | D (D: ≥ 5 and < 10) | < 100 nM | CCN(CC)C/C=C/C(=O)N1CCc2c(sc3ncnc(Nc4ccc(Oc5ccc(C)nc5)c(C)c4)c23)C1 [Compound 131] |
| 100 to 1000 nM | B (B: ≥ 20 and < 100) | B (B: ≥ 20 and < 100) | < 100 nM | Cc1ccc(Oc2ccc(Nc3ncnc4sc5c(c34)CCN(C(=O)/C=C/CN3C[C@H]4C[C@@H]3CC4C#N)C5)cc2C)cn1 (stereo partly shown) [Compound 120] |
| 100 to 1000 nM | C (C: ≥ 10 and < 20) | D (D: ≥ 5 and < 10) | < 100 nM | Cc1ccc(Oc2ccc(Nc3ncnc4sc5c(c34)CCN(C(=O)/C=C/CN3CC4(CCCC4)C3)C5)cc2C)cn1 [Compound 123] |
| 100 to 1000 nM | B (B: ≥ 20 and < 100) | B (B: ≥ 20 and < 100) | < 100 nM | CC[C@H](NC/C=C/C(=O)N1CCc2c(sc3ncnc(Nc4ccc(Oc5ccc(C)nc5)c(C)c4)c23)C1)C(F)(F)F [Compound 122] |
| < 100 nM | D (D: ≥ 5 and < 10) | E (E: >1 and < 5) | < 100 nM | Cc1ccc(Oc2ccc(Nc3ncnc4sc5c(c34)CCN(C(=O)/C=C/CN3CC4CCC3C4)C5)cc2C)cn1 (stereo not shown) [Compound 14] |
| 100 to 1000 nM | D (D: ≥ 5 and < 10) | D (D: ≥ 5 and < 10) | < 100 nM | COc1ccc(Oc2ccc(Nc3ncnc4sc5c(c34)C(C)CN(C(=O)C=CCN(C)C)C5)cc2C)cn1 (single isomer, unassigned) [Compound 160] |
| 100 to 1000 nM | B (B: ≥ 20 and < 100) | B (B: ≥ 20 and < 100) | < 100 nM | Cc1ccc(Oc2ccc(Nc3ncnc4sc5c(c34)CCN(C(=O)/C=C/CN3CC(C)OC(C)C3C)C5)cc2C)cn1 (stereo not shown) [Compound 117] |
| 100 to 1000 nM | B (B: ≥ 20 and < 100) | C (C: ≥ 10 and < 20) | 100 to 1000 nM | C=CC(=O)N1[C@H](C)Cc2c(sc3ncnc(Nc4ccc(Oc5ccc(C)nc5)c(C)c4)c23)[C@H]1C (racemic) [Compound 166, 1-(6,8-trans-dimethyl-4-((3-methyl-4-((6-methylpyridin-3-yl)oxy)phenyl)amino)-5,8-dihydropyrido[4′,3′:4,5]thieno[2,3-d]pyrimidin-7(6H)-yl)prop-2-en-1-one] |
| < 100 nM | B (B: ≥ 20 and < 100) | E (E: >1 and < 5) | < 100 nM | Cc1ccc(Oc2ccc(Nc3ncnc4sc5c(c34)C(C)CN(C(=O)C=CCN(C)C(C)(C)C)C5)cc2C)cn1 (single isomer, unassigned) [Compound 179] |
| 1000 to 10000 nM | B (B: ≥ 20 and < 100) | B (B: ≥ 20 and < 100) | 100 to 1000 nM | Cc1ccc(Oc2ccc(Nc3ncnc4sc5c(c34)C(C)CN(C(=O)C=CCN3CCOCC3)C5)cc2C)cn1 (single isomer, unassigned) [Compound 176] |
| 100 to 1000 nM | C (C: ≥ 10 and < 20) | D (D: ≥ 5 and < 10) | < 100 nM | Cc1ccc(Oc2ccc(Nc3ncnc4sc5c(c34)C(C)CN(C(=O)C=CCN3CCOCC3)C5)cc2C)cn1 (single isomer, unassigned) [Compound 177] |
| 100 to 1000 nM | B (B: ≥ 20 and < 100) | E (E: >1 and < 5) | < 100 nM | Cc1ccc(Oc2ccc(Nc3ncnc4sc5c(c34)CCN(C(=O)/C=C/CN3CCCC(F)(CO)C3)C5)cc2C)cn1 (stereo not shown) [Compound 150] |

| SMILES | EC50 [1] | Selectivity A431 EC50/BT474 EC50 [1] | Selectivity A431 EC50/HEKYVMA EC50 [1] | IC50 [2] |
| --- | --- | --- | --- | --- |
| C=CC(=O)N1Cc2sc3ncnc(Nc4ccc(Oc5ccc(C)nc5)c(C)c4)c3c2C(C)C1 (stereo not shown) [Compound 142, 1-(5-methyl-4-((3-methyl-4-((6-methylpyridin-3-yl)oxy)phenyl)amino)-5,6-dihydropyrido[4′,3′:4,5]thieno[2,3-d]pyrimidin-7(8H)-yl)prop-2-en-1-one] | 100 to 1000 nM | B (B: ≥ 20 and < 100) | B (B: ≥ 20 and < 100) | < 100 nM |
| Cc1ccc(Oc2ccc(Nc3ncnc4sc5c(c34)C(C)CN(C(=O)/C=C/CN(C)C(C)(C)C)C5)cc2C)cn1 (stereo not shown) [Compound 175] | < 100 nM | C (C: ≥ 10 and < 20) | E (E: >1 and < 5) | < 100 nM |
